{"source": "patent US4791215A", "about": "“Derivatives of glutamic acid and aspartic acid” (priority 1984, dated 1988)", "key": {"morphine analgesia": {"tested_on": "morphine analgesia", "assay": "Increase in analgesia of morphine, Tail Flick Test (Experiment 1)", "assay_type": "in vivo, rats", "conditions": "for M (10-90) ± SE, mean percentage variation of latency: mean 10-90 min; for Power ratio with respect to morphine alone: rat, in vivo", "method_in_brief": "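Non-fasted male rats (150-200 g); a tail point is exposed to a 75 °C heat source and latency to tail movement recorded, 8 s cut-off. Readings taken before and 10, 20, 30, 45, 60 and 90 min after analgesic treatment; percentage variation calculated per animal.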"}, "[1]": {"tested_on": "CCK-8 induced contraction of guinea pig gall bladder", "assay": "Anti-CCK activity on gall bladder strips in vitro", "conditions": "CCK-8 10 ng/ml", "method_in_brief": "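Longitudinal guinea pig gall bladder strips in Krebs at 32 °C, gassed with O2/CO2 95:5, were contracted with 10 ng/ml CCK-8. Isometric force was recorded across several compound concentrations, and ED50 was taken as the μg/ml concentration antagonising 50% of the CCK contraction.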"}, "[2]": {"tested_on": "tolerance induced by morphine", "assay": "Antagonism to development of tolerance to repeated morphine HCl, Tail Flick Test (Experiment 5)"}, "[3]": {"tested_on": "intestinal transit of carbon", "assay": "Anti-spastic activity, vegetable carbon intestinal transit test", "assay_type": "in vivo, mice", "conditions": "Mus musculus, ip; read-out: antispastic activity ED50 (dose reducing intestinal transit of carbon by 50%)", "from_the_text": "The anti-spastic activity which the present compounds exert on the entire digestive system is also notable. Measured in mice with the vegetable carbon test (rate of transit through the stomach and the intestine), this activity is illustrated in the following table.\nclaimed administered intraperitoneally in mice. Values\nexpressed as the ED 50 in mg/kg, that is the dose which\nreduces the intestinal transit of carbon by 50%"}, "[4]": {"conditions": "10', compound 10 mg/kg i.p. + morphine 2 mg/kg"}, "[5]": {"conditions": "20', compound 10 mg/kg i.p. + morphine 2 mg/kg"}, "[6]": {"conditions": "30', compound 10 mg/kg i.p. + morphine 2 mg/kg"}, "[7]": {"conditions": "45', compound 10 mg/kg i.p. + morphine 2 mg/kg"}, "[8]": {"conditions": "60', compound 10 mg/kg i.p. + morphine 2 mg/kg"}, "[9]": {"conditions": "90', compound 10 mg/kg i.p. + morphine 2 mg/kg"}, "[10]": {"conditions": "compound 10 mg/kg i.p. + morphine 2 mg/kg"}}}
{"smiles": "CCCCN(CCCC)C(=O)CCC(NC(=O)c1ccc(C#N)cc1)C(=O)O", "note": "[Compound D-8]", "values": [{"measurement": "percentage variation of latency of pain sensation", "setting": "morphine analgesia; [4]", "value": "29.0 ± 15.0", "unit": "%"}, {"measurement": "percentage variation of latency of pain sensation", "setting": "morphine analgesia; [5]", "value": 50.9, "unit": "%"}, {"measurement": "percentage variation of latency of pain sensation", "setting": "morphine analgesia; [6]", "value": "61.4 ± 22.0", "unit": "%"}, {"measurement": "percentage variation of latency of pain sensation", "setting": "morphine analgesia; [7]", "value": "57.7 ± 18.0", "unit": "%"}, {"measurement": "percentage variation of latency of pain sensation", "setting": "morphine analgesia; [8]", "value": "52.9 ± 20.0", "unit": "%"}, {"measurement": "percentage variation of latency of pain sensation", "setting": "morphine analgesia; [9]", "value": "28.3 ± 12.0", "unit": "%"}, {"measurement": "M (10-90) ± SE, mean percentage variation of latency", "setting": "morphine analgesia; [10]", "value": "46.7 ± 14.4", "unit": "%"}, {"measurement": "Power ratio with respect to morphine alone", "setting": "morphine analgesia", "value": 1.56}, {"measurement": "ED50 (concentration antagonising 50% of contracting effect of CCK-8)", "setting": "[1]", "value": "> 200", "unit": "µg/mL"}, {"measurement": "percentage variation in latency time (Effect %)", "setting": "[2]; compound 10 mg/kg + morphine 5 mg/kg i.p., 24 h", "value": 43.65, "unit": "%"}, {"measurement": "percentage variation in latency time (Effect %)", "setting": "[2]; compound 10 mg/kg + morphine 5 mg/kg i.p., 48 h", "value": 32.80, "unit": "%"}, {"measurement": "percentage variation in latency time (Effect %)", "setting": "[2]; compound 10 mg/kg + morphine 5 mg/kg i.p., 72 h", "value": 31.78, "unit": "%"}, {"measurement": "percentage variation in latency time (Effect %)", "setting": "[2]; compound 10 mg/kg + morphine 5 mg/kg i.p., 96 h", "value": 35.45, "unit": "%"}, {"measurement": "percentage variation in latency time (Effect %)", "setting": "[2]; compound 10 mg/kg + morphine 5 mg/kg i.p., 120 h", "value": 42.08, "unit": "%"}, {"measurement": "percentage variation in latency time (Effect %)", "setting": "[2]; compound 10 mg/kg + morphine 5 mg/kg i.p., 144 h", "value": 29.33, "unit": "%"}, {"measurement": "percentage variation in latency time (Effect %)", "setting": "[2]; compound 10 mg/kg + morphine 5 mg/kg i.p., 168 h", "value": 19.17, "unit": "%"}, {"measurement": "percentage variation in latency time (Effect %)", "setting": "[2]; compound 10 mg/kg + morphine 5 mg/kg i.p., time 0", "value": 47.32, "unit": "%"}]}
{"smiles": "CCCc1ccc(C(=O)NC(CCC(=O)O)C(=O)N(CC)CC)cc1", "note": "(stereo not shown) [Compound C-41]", "values": [{"measurement": "percentage variation of latency of pain sensation", "setting": "morphine analgesia; [4]", "value": "32.1 ± 18", "unit": "%"}, {"measurement": "percentage variation of latency of pain sensation", "setting": "morphine analgesia; [5]", "value": "60.0 ± 22", "unit": "%"}, {"measurement": "percentage variation of latency of pain sensation", "setting": "morphine analgesia; [6]", "value": "40.0 ± 17", "unit": "%"}, {"measurement": "percentage variation of latency of pain sensation", "setting": "morphine analgesia; [7]", "value": "46.7 ± 23", "unit": "%"}, {"measurement": "percentage variation of latency of pain sensation", "setting": "morphine analgesia; [8]", "value": 11.5, "unit": "%"}, {"measurement": "percentage variation of latency of pain sensation", "setting": "morphine analgesia; [9]", "value": "7.4 ± 20", "unit": "%"}, {"measurement": "M (10-90) ± SE, mean percentage variation of latency", "setting": "morphine analgesia; [10]", "value": "32.9 ± 20", "unit": "%"}, {"measurement": "Power ratio with respect to morphine alone", "setting": "morphine analgesia", "value": 1.10}, {"measurement": "ED50", "setting": "[3]", "value": 182, "unit": "mg/kg"}]}
{"smiles": "CCCCCCNC(=O)C(CCC(=O)O)NC(=O)c1ccc(C)c(C)c1", "note": "(stereo not shown) [Compound C-46]", "values": [{"measurement": "percentage variation of latency of pain sensation", "setting": "morphine analgesia; [4]", "value": "14.7 ± 9", "unit": "%"}, {"measurement": "percentage variation of latency of pain sensation", "setting": "morphine analgesia; [5]", "value": "60.0 ± 18", "unit": "%"}, {"measurement": "percentage variation of latency of pain sensation", "setting": "morphine analgesia; [6]", "value": "28.0 ± 5", "unit": "%"}, {"measurement": "percentage variation of latency of pain sensation", "setting": "morphine analgesia; [7]", "value": "55.2 ± 20", "unit": "%"}, {"measurement": "percentage variation of latency of pain sensation", "setting": "morphine analgesia; [8]", "value": "30.2 ± 17", "unit": "%"}, {"measurement": "percentage variation of latency of pain sensation", "setting": "morphine analgesia; [9]", "value": "12.2 ± 11", "unit": "%"}, {"measurement": "M (10-90) ± SE, mean percentage variation of latency", "setting": "morphine analgesia; [10]", "value": "32.9 ± 21", "unit": "%"}, {"measurement": "Power ratio with respect to morphine alone", "setting": "morphine analgesia", "value": 1.10}, {"measurement": "ED50", "setting": "[3]", "value": 66.9, "unit": "mg/kg"}]}
{"smiles": "CN1CC[C@]23c4c5ccc(O)c4O[C@H]2[C@@H](O)C=C[C@H]3[C@H]1C5", "note": "[Morphine, reference compound]", "values": [{"measurement": "percentage variation of latency of pain sensation", "setting": "morphine analgesia; 10', morphine 2 mg/kg alone", "value": "10.8 ± 4.0", "unit": "%"}, {"measurement": "percentage variation of latency of pain sensation", "setting": "morphine analgesia; 10', morphine 2 mg/kg alone, listed as Morphene", "value": 10.8, "unit": "%"}, {"measurement": "percentage variation of latency of pain sensation", "setting": "morphine analgesia; 20', morphine 2 mg/kg alone", "value": "54.2 ± 17.0", "unit": "%"}, {"measurement": "percentage variation of latency of pain sensation", "setting": "morphine analgesia; 20', morphine 2 mg/kg alone, listed as Morphene", "value": "54.2 ±17", "unit": "%"}, {"measurement": "percentage variation of latency of pain sensation", "setting": "morphine analgesia; 30', morphine 2 mg/kg alone", "value": "46.6 ± 21.0", "unit": "%"}, {"measurement": "percentage variation of latency of pain sensation", "setting": "morphine analgesia; 30', morphine 2 mg/kg alone, listed as Morphene", "value": "46.6 ± 21", "unit": "%"}, {"measurement": "percentage variation of latency of pain sensation", "setting": "morphine analgesia; 45', morphine 2 mg/kg alone", "value": "41.7 ± 16.0", "unit": "%"}, {"measurement": "percentage variation of latency of pain sensation", "setting": "morphine analgesia; 45', morphine 2 mg/kg alone, listed as Morphene", "value": 41.7, "unit": "%"}, {"measurement": "percentage variation of latency of pain sensation", "setting": "morphine analgesia; 60', morphine 2 mg/kg alone", "value": 32.0, "unit": "%"}, {"measurement": "percentage variation of latency of pain sensation", "setting": "morphine analgesia; 60', morphine 2 mg/kg alone, listed as Morphene", "value": "32 ± 17", "unit": "%"}, {"measurement": "percentage variation of latency of pain sensation", "setting": "morphine analgesia; 90', morphine 2 mg/kg alone", "value": "-6.4 ± 10.0", "unit": "%"}, {"measurement": "percentage variation of latency of pain sensation", "setting": "morphine analgesia; 90', morphine 2 mg/kg alone, listed as Morphene", "value": "-6.4 ± 10", "unit": "%"}, {"measurement": "M (10-90) ± SE, mean percentage variation of latency", "setting": "morphine analgesia; morphine 2 mg/kg alone", "value": "29.8 ± 23.0", "unit": "%"}, {"measurement": "M (10-90) ± SE, mean percentage variation of latency", "setting": "morphine analgesia; morphine 2 mg/kg alone, listed as Morphene", "value": 29.8, "unit": "%"}, {"measurement": "day at which activity reaches level of inactivity (0)", "setting": "[2]; from the straight lines of regression", "value": "fell to 0 on the sixth day of treatment"}, {"measurement": "percentage variation in latency time (Effect %)", "setting": "[2]; morphine 5 mg/kg i.p. alone, 24 h", "value": 42.09, "unit": "%"}, {"measurement": "percentage variation in latency time (Effect %)", "setting": "[2]; morphine 5 mg/kg i.p. alone, 48 h", "value": 26.54, "unit": "%"}, {"measurement": "percentage variation in latency time (Effect %)", "setting": "[2]; morphine 5 mg/kg i.p. alone, 72 h", "value": 19.96, "unit": "%"}, {"measurement": "percentage variation in latency time (Effect %)", "setting": "[2]; morphine 5 mg/kg i.p. alone, 96 h", "value": 10.79, "unit": "%"}, {"measurement": "percentage variation in latency time (Effect %)", "setting": "[2]; morphine 5 mg/kg i.p. alone, 120 h", "value": 4.45, "unit": "%"}, {"measurement": "percentage variation in latency time (Effect %)", "setting": "[2]; morphine 5 mg/kg i.p. alone, 168 h", "value": 2.12, "unit": "%"}, {"measurement": "percentage variation in latency time (Effect %)", "setting": "[2]; morphine 5 mg/kg i.p. alone, time 0", "value": 58.03, "unit": "%"}, {"measurement": "activity versus controls / morphine group during treatment", "setting": "[2]; up to 168 hours", "value": "not significantly different from the control group"}]}
